Literature values, collected in patent publication US20040156920A1, “Extracts from plant and non-plant biomass and uses thereof” (priority 2000, published 2004).

Legend:
[1] = system: classical complement pathway
male albino rats = settings: 20 mg/kg body weight daily subcutaneous
human blood PMN cells = system: human blood PMN cells; design: phagocytosis at higher concentration: dose or concentration left out as unconfirmed

## CC1(C)[C@@H](O)CC[C@]2(C)[C@H]3C(=O)C=C4[C@H]5C[C@@](C)(C(=O)O)CC[C@]5(C)CC[C@@]4(C)[C@]3(C)CC[C@@H]12 [Beta-glycyrrhetinic acid]
[1]
  IC50: 35 µM

## CCCCCCCCCCCC1=C(O)C(=O)C=C(O)C1=O [embelin]
Male albino rats
  sperm count and other fertility parameters: inhibition of sperm count and other fertility parameters

## Wheat germ agglutinin
Human blood PMN cells
  phagocytosis at higher concentration: strongly inhibited phagocytosis
Human blood PMN cells; 0.5-1.0 mg/ml
  promotion of phagocytosis compared to Zymosan-A control: 1.8 times
